The text below walks through data of ChEMBL document CHEMBL5096216, “Rational Design, Synthesis, and Biological Evaluation of Novel S1PR2 Antagonists for Reversing 5-FU-Resistance in Colorectal Cancer” (J Med Chem, 2022).

For data set [1], the system named is SW620/5-FU. Nature of the data set: Antitumor activity against human SW620/5-FU cells xenografted in nude mouse assessed as tumor volume at 15 mg/kg, iv administered once daily and measured on day 1 (reference value: 105 +/- 14 mm3). Conditions: time 1 day. The format is functional.
Data set [2] deals with HT-29. Description: Antiproliferative activity against human HT-29 cells assessed as reduction in cell viability at 40 uM incubated for 48 hrs by MTT assay. It counts as functional.
The test system of data set [3] is HCT-116. Nature of the data set: Antiproliferative activity against human HCT-116 cells assessed as reduction in cell viability incubated for 48 hrs by MTT assay. The following applies: HCT-116, 48 h.
The subject of data set [4] is SW-620. Description: Antiproliferative activity against human SW620 cells assessed as reduction in cell viability incubated for 48 hrs by MTT assay. Conditions: SW-620, 48 h. The format is functional, cell-based.
In data set [5] the test system is HCT-116. Nature of the data set: Antiproliferative activity against human HCT-116 cells assessed as cell growth inhibition at 40 uM incubated for 48 hrs by MTT assay relative to control. It counts as functional. Also on record: scale not given: the % may be the effect or the level left.
In data set [6] the test system is SW-620. Nature of the data set: Antiproliferative activity against human SW620 cells assessed as cell growth inhibition at 40 uM incubated for 48 hrs by MTT assay relative to control. The format is functional. Set-up: scale not given: the % may be the effect or the level left.
In data set [7] the test system is HT-29. Description: Antiproliferative activity against human HT-29 cells assessed as cell growth inhibition at 40 uM incubated for 48 hrs by MTT assay relative to control. Also on record: scale not given: the % may be the effect or the level left. The format is functional.
Data set [8] relates to HCT-116. Description: Antiproliferative activity against human HCT-116 cells overexpressing DPD assessed as reduction in cell viability at 40 uM incubated for 48 hrs by MTT assay. It counts as functional.
Data set [9] has as its system SW620/5-FU. Description: Antiproliferative activity against human SW620/5-FU cells assessed as reduction in cell viability at 40 uM incubated for 48 hrs by MTT assay. The format is functional.
The next data set has as its system NCM460. Nature of the data set: Cytotoxicity against human NCM460 cells assessed as reduction in cell viability at 40 uM incubated for 48 hrs by MTT assay. The format is toxicity, cell-based. Conditions: ncm460, 48 h.
For data set [10], the system named is SW620/5-FU. Nature of the data set: Induction of apoptosis in human SW620/5-FU cells assessed as viable cells at 40 uM incubated for 24 hrs by Annexin-V/PI staining based flow cytometry assay (reference value: 94.3%). It counts as functional. The following applies: read-out: Activity.
For data set [11], the system named is SW620/5-FU. Description: Induction of apoptosis in human SW620/5-FU cells assessed as early apoptotic cells at 40 uM incubated for 24 hrs by Annexin-V/PI staining based flow cytometry assay (reference value: 2.73%). It counts as functional.
Data set [12] has as its system SW620/5-FU. Nature of the data set: Induction of apoptosis in human SW620/5-FU cells assessed as late apoptotic cells at 40 uM incubated for 24 hrs by Annexin-V/PI staining based flow cytometry assay (reference value: 2.97%). It counts as functional.
Data set [13] has as its system SW620/5-FU. Description: Induction of apoptosis in human SW620/5-FU cells assessed as necrotic cells at 40 uM incubated for 24 hrs by Annexin-V/PI staining based flow cytometry assay (reference value: 0%). The format is functional.
The subject of data set [14] is SW620/5-FU. Nature of the data set: Antitumor activity against human SW620/5-FU cells xenografted in nude mouse assessed as tumor volume at 15 mg/kg, iv administered once for every 3 days and measured on day 15 (reference value: 1991 +/- 469 mm3). Conditions: time 15 day. It counts as functional.
For data set [15], the system named is SW620/5-FU. Description: Antitumor activity against human SW620/5-FU cells xenografted in nude mouse assessed as tumor volume at 15 mg/kg, iv administered once for every 3 days and measured on day 1 (reference value: 105 +/- 14 mm3). Conditions: time 1 day. The format is functional.
The test system of data set [16] is SW620/5-FU. Nature of the data set: Antitumor activity against human SW620/5-FU cells xenografted in nude mouse assessed as tumor volume at 15 mg/kg, iv administered once daily and measured on day 15 (reference value: 1991 +/- 469 mm3). The following applies: time 15 day. It counts as functional.
Data set [17] relates to SW620/5-FU. Description: Antitumor activity against human SW620/5-FU cells xenografted in nude mouse assessed as tumor wight at 15 mg/kg, iv administered once for every 3 days (reference value: 1.3 +/- 0.6 g). The format is functional.
The subject of data set [18] is SW620/5-FU. Nature of the data set: Antitumor activity against human SW620/5-FU cells xenografted in nude mouse assessed as tumor wight at 15 mg/kg/day, iv (reference value: 1.3 +/- 0.6 g). It counts as functional.
Data set [19] concerns SW620/5-FU. Nature of the data set: Antitumor activity against human SW620/5-FU cells xenografted in nude mouse assessed as tumor growth inhibition at 15 mg/kg, iv administered once for every 3 days. It counts as functional. The following applies: 72 h, read-out: TGI.
Data set [20] relates to SW620/5-FU. Description: Antitumor activity against human SW620/5-FU cells xenografted in nude mouse assessed as tumor growth inhibition at 15 mg/kg/day, iv. The format is functional. The following applies: read-out: TGI.

As to `O=c1[nH]cc(F)c(=O)[nH]1` [FLUOROURACIL], the Activity was 102 mm3 in the data set on SW620/5-FU [1]; 5.14% with HT-29 [2]; over 70% in the data set with HCT-116 [5]; over 70% with SW-620 [6]; over 70% in the data set on HT-29 [7]; 8.12% with HCT-116 [8]. The Activity is on record as 9.13% in the data set with SW620/5-FU [9]; 25.33% with NCM460; 4.41% in the data set with SW620/5-FU [11]; 7.76% in the data set on SW620/5-FU [12]; 0.17% in the data set with SW620/5-FU [13]; 1675 mm3 in the data set with SW620/5-FU [14]. The Activity in the data set with SW620/5-FU [15] amounted to 104 mm3; in the data set with SW620/5-FU [16] it was 1256 mm3; in the data set with SW620/5-FU [17], 1.1 g; in the data set with SW620/5-FU [18], 0.8 g. Also, the IC50 in the data set with HCT-116 [3] was found to be 21.5 µM; in the data set with SW-620 [4], 13.2 µM. Moreover, the viability at 40 µM in the data set with SW620/5-FU [10] was 87.7%. Also, in the data set on SW620/5-FU [19], the inhibition in vivo at 15 mg/kg worked out at 15.9%. Besides, the inhibition in vivo at 15 mg/kg/day in the data set with SW620/5-FU [20] was 36.9%.
